Square brackets hold non-standard residues; d marks the D form. Ends that are not written are not given here. Dip = N[C@H](C(=O)O)C(c1ccccc1)c1ccccc1
System: A375 cells
Assay: TEM electron microscopy of A375 cells
Assay type: cell-based, human
Method: A375 cells were seeded at 1×10^5 cells per well in 6-well plates and allowed to grow for three days to optimize membrane structures in the culture, and the media was changed on the second day. Cells were washed twice in serum-free RPMI before being treated with LTX-315 dissolved in serum-free RPMI at 5, 10 and 25 μg/ml, with serum-free RPMI as a negative control. Cells were then washed with PBS twice before fixation for 24 hours in 4° C. with 4% formaldehyde and 1% gluteralaldehyde in a Hepes buffer at pH 7.8. Dehydration and post-fixation protocols included incubation in a 5% buffered tannic acid and incubation in a 1% osmium-reduced ferrocyanide. Ultrathin sections were prepared, and uranyl acetate (5%) and Reynolds's lead citrate were used for staining and contrasting. Samples were examined on a JEOL JEM-1010 transmission electron microscope, and images were taken with an Olympus Morada side-mounted TEM CCD camera (Olympus soft imaging solutions, GmbH, Germany).

For “K-K-W-W-K-K-W-Dip-K-NH2 (KKWWKKW[Dip]K-NH2) [LTX-315]”, the cells with vacuolization (3.5 μM) was “approximately 20%”, the “number of necrotic cells” value (3.5 μM, 60 minutes) was “less than 5%” and the ultrastructural changes (3.5 μM, 60 minutes) was “showed vacuolization, as well as some altering of the mitochondrial morphology”. For the same substance, the cells displaying vacuolization (17 μM, 60 min) was 4%, the “cells with necrotic morphology and loss of plasma membrane integrity” value (17 μM, 60 min) was “approximately 40%” and the “mode of cell killing” value (TEM, A375 cells) was “kills the tumor cells with a lytic mode of action”.
